Experimental data reported in article PMC11111408, “Concurrent inhibition of oncogenic and wild-type RAS-GTP for cancer therapy” (Nature, 2024).

System: PRISM DNA-barcoded human tumour cell lines
Assay: PRISM pooled cell viability assay;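 on PRISM AUC: 8 threefold dilutions from 10 µM with 5 days of exposure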
Type: cell-based
Set-up: AUC (PRISM viability) / AUC (PRISM): unit not given beside the values
Conditions: for AUC (PRISM viability): WT; for PRISM AUC: KRAS MUT
Description: Cells were then lysed in TCL mRNA lysis buffer, and then PCR with reverse transcription was performed. Detection of the barcodes and univariate and multivariate analysis was then performed as previously described. Data analysis is described in the Supplementary Methods. Up-to-date code for our analysis is at the github link: https://github.com/cmap/dockerized_mts.
For every gene with non-silent mutations in at least four cell-lines, we compared the AUC values between cells with and without those mutations using a t-test. This analysis was carried out for: (i) the full dataset; (ii) excluding cell lines with non-silent KRAS mutations; and (iii) excluding cell lines that have either KRAS or NRAS non-silent mutations.

CCn1c(-c2cc(N3CCN(C4CC4)CC3)cnc2[C@H](C)OC)c2c3cc(ccc31)-c1csc(n1)C[C@H](NC(=O)[C@H]1[C@@H]3COC[C@@H]31)C(=O)N1CCC[C@H](N1)C(=O)OCC(C)(C)C2 [RMC-7977]
AUC (PRISM viability) (SCC25_UPPER_AERODIGESTIVE_TRACT): 0.3367
AUC (PRISM viability) (SCLC21H_LUNG): 0.9496
AUC (PRISM viability) (SEM_HAEMATOPOIETIC_AND_LYMPHOID_TISSUE): 0.8793
AUC (PRISM viability) (SF126_CENTRAL_NERVOUS_SYSTEM): 0.7112
AUC (PRISM viability) (SF295_CENTRAL_NERVOUS_SYSTEM): 0.7908
AUC (PRISM viability) (SF539_CENTRAL_NERVOUS_SYSTEM): 0.7182
AUC (PRISM viability) (SH4_SKIN): 0.8584
PRISM AUC (SH10TC_STOMACH): 0.4138
PRISM AUC (SHP77_LUNG): 0.4654
AUC (PRISM viability) (SIMA_AUTONOMIC_GANGLIA): 0.5854
AUC (PRISM viability) (SKES1_BONE): 0.8807
AUC (PRISM viability) (SKHEP1_LIVER): 0.7844
AUC (PRISM viability) (SKLMS1_SOFT_TISSUE): 0.3954
PRISM AUC (SKLU1_LUNG): 0.1796
AUC (PRISM viability) (SKMEL3_SKIN): 1
AUC (PRISM viability) (SKMEL5_SKIN): 0.8492
AUC (PRISM viability) (SKMEL24_SKIN): 0.8551
AUC (PRISM viability) (SKMEL28_SKIN): 0.8799
AUC (PRISM viability) (SKMEL30_SKIN): 0.2141
AUC (PRISM viability) (SKMES1_LUNG): 0.4907
AUC (PRISM viability) (SKNAS_AUTONOMIC_GANGLIA): 0.2639
AUC (PRISM viability) (SKNBE2_AUTONOMIC_GANGLIA): 0.4969
AUC (PRISM viability) (SKNDZ_AUTONOMIC_GANGLIA): 0.7338
AUC (PRISM viability) (SKNMC_BONE): 0.8913
AUC (PRISM viability) (SKNO1_HAEMATOPOIETIC_AND_LYMPHOID_TISSUE): 0.4958
AUC (PRISM viability) (SKOV3_OVARY): 0.8555
AUC (PRISM viability) (SKUT1_SOFT_TISSUE): 0.8493
AUC (PRISM viability) (SNB75_CENTRAL_NERVOUS_SYSTEM): 0.7551
PRISM AUC (SNGM_ENDOMETRIUM): 0.5073
PRISM AUC (SNU1_STOMACH): 0.47
AUC (PRISM viability) (SNU46_UPPER_AERODIGESTIVE_TRACT): 0.6229
PRISM AUC (SNU61_LARGE_INTESTINE): 0.1577
AUC (PRISM viability) (SNU182_LIVER): 1
AUC (PRISM viability) (SNU201_CENTRAL_NERVOUS_SYSTEM): 0.8111
PRISM AUC (SNU213_PANCREAS): 0.2216
AUC (PRISM viability) (SNU216_STOMACH): 0.4345
AUC (PRISM viability) (SNU245_BILIARY_TRACT): 0.5897
AUC (PRISM viability) (SNU308_BILIARY_TRACT): 0.4973
AUC (PRISM viability) (SNU398_LIVER): 0.9232
PRISM AUC (SNU407_LARGE_INTESTINE): 0.42
PRISM AUC (SNU410_PANCREAS): 0.5771
AUC (PRISM viability) (SNU423_LIVER): 0.6851
AUC (PRISM viability) (SNU449_LIVER): 0.7416
AUC (PRISM viability) (SNU466_CENTRAL_NERVOUS_SYSTEM): 0.3575
AUC (PRISM viability) (SNU489_CENTRAL_NERVOUS_SYSTEM): 0.8437
PRISM AUC (SNU601_STOMACH): 0.2276
AUC (PRISM viability) (SNU685_ENDOMETRIUM): 0.8482
AUC (PRISM viability) (SNU719_STOMACH): 0.2772
AUC (PRISM viability) (SNU761_LIVER): 0.9921
AUC (PRISM viability) (SNU840_OVARY): 0.3829
PRISM AUC (SNU869_BILIARY_TRACT): 0.3809
AUC (PRISM viability) (SNU878_LIVER): 0.7757
AUC (PRISM viability) (SNU886_LIVER): 0.4222
AUC (PRISM viability) (SNU899_UPPER_AERODIGESTIVE_TRACT): 0.2281
AUC (PRISM viability) (SNU1076_UPPER_AERODIGESTIVE_TRACT): 0.2341
AUC (PRISM viability) (SNU1077_ENDOMETRIUM): 0.9228
AUC (PRISM viability) (SNU1079_BILIARY_TRACT): 0.7613
AUC (PRISM viability) (SNU1105_CENTRAL_NERVOUS_SYSTEM): 0.4704
AUC (PRISM viability) (SNU1196_BILIARY_TRACT): 0.9637
AUC (PRISM viability) (SNU1214_UPPER_AERODIGESTIVE_TRACT): 0.179
PRISM AUC (SNUC2A_LARGE_INTESTINE): 0.7905
AUC (PRISM viability) (SNUC4_LARGE_INTESTINE): 0.612
AUC (PRISM viability) (SQ1_LUNG): 0.3633
AUC (PRISM viability) (SR786_HAEMATOPOIETIC_AND_LYMPHOID_TISSUE): 0.6127
PRISM AUC (SUIT2_PANCREAS): 0.4229
PRISM AUC (SW480_LARGE_INTESTINE): 0.2548
AUC (PRISM viability) (SW579_THYROID): 0.4828
PRISM AUC (SW620_LARGE_INTESTINE): 0.1434
AUC (PRISM viability) (SW780_URINARY_TRACT): 0.559
PRISM AUC (SW900_LUNG): 0.3401
AUC (PRISM viability) (SW1088_CENTRAL_NERVOUS_SYSTEM): 0.6279
AUC (PRISM viability) (SW1271_LUNG): 0.5768
AUC (PRISM viability) (SW1353_BONE): 0.841
AUC (PRISM viability) (SW1710_URINARY_TRACT): 0.7469
AUC (PRISM viability) (SW1783_CENTRAL_NERVOUS_SYSTEM): 0.7461
PRISM AUC (SW1990_PANCREAS): 0.4703
PRISM AUC (T3M10_LUNG): 0.7347
AUC (PRISM viability) (T24_URINARY_TRACT): 0.4656
AUC (PRISM viability) (T47D_BREAST): 0.8281
PRISM AUC (T84_LARGE_INTESTINE): 0.5086
AUC (PRISM viability) (T98G_CENTRAL_NERVOUS_SYSTEM): 0.6265
AUC (PRISM viability) (TALL1_HAEMATOPOIETIC_AND_LYMPHOID_TISSUE): 0.6203
AUC (PRISM viability) (TC32_BONE): 0.7163
AUC (PRISM viability) (TC71_BONE): 0.7602
PRISM AUC (TCCPAN2_PANCREAS): 0.4522
AUC (PRISM viability) (TCCSUP_URINARY_TRACT): 0.7623
AUC (PRISM viability) (TE1_OESOPHAGUS): 0.7271
AUC (PRISM viability) (TE5_OESOPHAGUS): 0.4124
AUC (PRISM viability) (TE6_OESOPHAGUS): 0.4273
AUC (PRISM viability) (TE8_OESOPHAGUS): 0.499
AUC (PRISM viability) (TE9_OESOPHAGUS): 0.6448
AUC (PRISM viability) (TE10_OESOPHAGUS): 0.472
AUC (PRISM viability) (TE11_OESOPHAGUS): 0.5416
AUC (PRISM viability) (TE14_OESOPHAGUS): 0.4491
AUC (PRISM viability) (TE15_OESOPHAGUS): 0.2922
AUC (PRISM viability) (TE617T_SOFT_TISSUE): 0.2711
AUC (PRISM viability) (TF1_HAEMATOPOIETIC_AND_LYMPHOID_TISSUE): 0.2378
AUC (PRISM viability) (THP1_HAEMATOPOIETIC_AND_LYMPHOID_TISSUE): 0.3541
AUC (PRISM viability) (TM31_CENTRAL_NERVOUS_SYSTEM): 0.8811
PRISM AUC (TOV21G_OVARY): 0.5751
AUC (PRISM viability) (TOV112D_OVARY): 0.6714
AUC (PRISM viability) (TT2609C02_THYROID): 0.2965
AUC (PRISM viability) (TT_OESOPHAGUS): 0.5096
AUC (PRISM viability) (TT_THYROID): 1
AUC (PRISM viability) (TUHR4TKB_KIDNEY): 1
AUC (PRISM viability) (TYKNU_OVARY): 0.2088
AUC (PRISM viability) (U2OS_BONE): 0.5581
AUC (PRISM viability) (U87MG_CENTRAL_NERVOUS_SYSTEM): 0.5899
AUC (PRISM viability) (U118MG_CENTRAL_NERVOUS_SYSTEM): 0.8323
AUC (PRISM viability) (U178_CENTRAL_NERVOUS_SYSTEM): 0.6826
AUC (PRISM viability) (U251MG_CENTRAL_NERVOUS_SYSTEM): 0.531
AUC (PRISM viability) (U343_CENTRAL_NERVOUS_SYSTEM): 0.5615
AUC (PRISM viability) (U937_HAEMATOPOIETIC_AND_LYMPHOID_TISSUE): 0.5098
AUC (PRISM viability) (UACC62_SKIN): 0.8484
AUC (PRISM viability) (UACC257_SKIN): 0.9461
AUC (PRISM viability) (UMUC1_URINARY_TRACT): 0.3417
AUC (PRISM viability) (UO31_KIDNEY): 0.7674
AUC (PRISM viability) (VMCUB1_URINARY_TRACT): 0.3401
AUC (PRISM viability) (VMRCRCW_KIDNEY): 0.6728
AUC (PRISM viability) (VMRCRCZ_KIDNEY): 0.8522
AUC (PRISM viability) (WM88_SKIN): 0.8971
AUC (PRISM viability) (WM793_SKIN): 0.8157
AUC (PRISM viability) (WM983B_SKIN): 0.8254
AUC (PRISM viability) (WM1799_SKIN): 0.8407
AUC (PRISM viability) (WM2664_SKIN): 1
AUC (PRISM viability) (WSUDLCL2_HAEMATOPOIETIC_AND_LYMPHOID_TISSUE): 0.6176
PRISM AUC (YAPC_PANCREAS): 0.2462
PRISM AUC (YD8_UPPER_AERODIGESTIVE_TRACT): 0.7835
AUC (PRISM viability) (YD10B_UPPER_AERODIGESTIVE_TRACT): 0.2966
AUC (PRISM viability) (YD15_SALIVARY_GLAND): 0.5241
AUC (PRISM viability) (YD38_UPPER_AERODIGESTIVE_TRACT): 0.2157
AUC (PRISM viability) (YH13_CENTRAL_NERVOUS_SYSTEM): 0.7662
AUC (PRISM viability) (YKG1_CENTRAL_NERVOUS_SYSTEM): 0.6011
AUC (PRISM viability) (ZR751_BREAST): 0.8548
